Results reported in patent US20240197891A1, “PHARMACEUTICAL COMPOSITIONS COMPRISING POH DERIVATIVES” (UNIVERSITY OF SOUTHERN CALIFORNIA, priority 2021, published 2024).

Tests used:
[1] = test system: TNF-α; test: Serum TNF-α following UV exposure; format: in vivo, mouse
Protocol: (§1) SKH-1 hairless mice were treated with 10 mg/kg POH-LA conjugate freshly prepared daily. The POH-LA conjugate was formulated in glycerol:ethanol (90:10) while the control animals received the glycerol:ethanol vehicle only or the commercially available sunblock (Well & Good Sun Protection Wipes SPF 15). Additional test groups were treated with POH formulated in the glycerol:ethanol vehicle or linoleic acid formulated in the glycerol:ethanol vehicle. 50 μL of each formulation was placed on a area 1 cm^2 area that was exposed to the UV light. The mice were treated with their respective formulations after exposure to the UV light. In FIG. 22A, the mouse was treated with sunblock. In FIG. 22B, the mouse was treated with POH. In FIG. 22C, the mouse was treated with linoleic acid. In FIG. 22D, the mouse was treated with POH-LA conjugate. In FIG. 22D, the mouse was treated with the glycerol:ethanol vehicle only. The POH-LA conjugate, POH or linoleic acid solutions were gently spread on the skin surface and allowed to air dry. The sunblock mouse was gently wiped on the exposure area with the sunblock towelette. This exposure and treatment went on for a maximum of 10 weeks. Throughout the experimental period the animals were photographed and weighed. At the end of the experimental period the mice were photographed and euthanized, followed by skin and blood collection. Blood was analyzed for markers of inflammation and DNA recovered from the exposed area of the skin and analyzed for markers of DNA damage.
(§2) Furthermore, blood samples were taken from each mouse 4 hours after the last cutaneous treatment. About 0.5 mL of blood was collected by cardiac puncture […]. Serum was aliquoted in Eppendorf tubes and store at −80° C. as preparation for cytokine analyses. […]
(§3) Mice were treated with 10 mg/kg POH-LA conjugate freshly prepared daily. […] Blood was analyzed for markers of inflammation and DNA recovered from the exposed area of the skin and analyzed for markers of DNA damage.

[2] = test system: IL-6; test: Serum IL-6 following UV exposure; format: in vivo, mouse
Protocol: as §1, with “In FIG. 22D, the mouse was treated with the glycerol:ethanol vehicle only.” left out
as §2, §3

[3] = test system: IL-1β; test: Serum IL-1β following UV exposure; format: in vivo, mouse
Protocol: as §1, §2, §3

[4] = test system: UV-B exposed skin; test: UV-B induced skin damage in SKH-1 hairless mice; format: in vivo, mouse; settings: topical post exposure
Protocol: (§4) FIG. 23 illustrates the simulation of sunlight by irradiation with UVB lamps (310 nm). The irradiation was conducted in a phototoxicity testing chamber and fitted with a UV-B lamp providing with a spectral output of approximately 310 nm. The source of UVR was a short-wavelength UV lamp (VWR. Radnor, PA). The peak spectral output of this lamp was approximately 310 nm, with no energy detectable below 260 nm, approximately 0.6% between 260 and 280 nm (UV-C), 72.7% between 280 and 320 nm (UV-B), and 26.7% between 320 and 400 nm (UV-A). Radiation dosage of UV-B per irradiation was set at 54 mJ/cm^2 for the first week, 72 mJ/cm^2 for the second week, 90 mJ/cm^2 for the third week, and 108 mJ/cm^2 for the remaining weeks, as confirmed by a UV monitor. Each irradiation event was 10 minutes long.
POH-LA conjugate, linoleic acid, POH, and the additive combination of linoleic acid and POH were each suspended in glycerol:ethanol (90:10 vol/vol) to a final concentration of 10 nM with 50 μL and applied to each SKH-1 hairless mouse post UV-B exposure for treatment. The sunblock mouse was gently wiped on the exposure area with the sunblock towelette. […] In FIG. 23B, the mice were treated with the glycerol:ethanol vehicle only. In FIG. 23C, the mice were treated with POH. In FIG. 23D, the mice were treated with linoleic acid. In FIG. 23E, the mice were treated with an mixture of linoleic acid and POH. In FIG. 23F, the mice were treated with POH-LA conjugate. In FIG. 23G, the mice were treated with sunblock. The application of POH-LA conjugate to UV-B exposed tissue limits the amount of observable skin damage as compared to the untreated control (B) or the individual components of POH-LA conjugate either alone (POH—C and LA—D), in mixture (E), or with sunblock (G).
as §4, with “FIGS. 24A-D illustrates the” for “FIG. 23 illustrates the”, “UV lamp (VWR, Radnor, PA).” for “UV lamp (VWR. Radnor, PA).”, “second week, and 90 mJ/cm^2” for “second week, 90 mJ/cm^2”, “third week, as confirmed” for “third week, and 108 mJ/cm^2 for the remaining weeks, as confirmed”, “UV monitor.” for “UV monitor. Each irradiation event was 10 minutes long.”
POH-LA conjugate (FIG. 24A), linoleic acid (FIG. 24B), POH (FIG. 24C), and the additive combination of linoleic acid and POH (FIG. 24D) were each suspended in glycerol:ethanol (90:10 vol/vol) to a final concentration of 10 nM with 50 μL applied to each mouse post UV-B exposure for treatment. The application of POH-LA conjugate to UV-B exposed tissue limits the amount of observable skin damage as compared the individual components of POH-LA conjugate either alone or in mixture.
as §4, with “This example” for “FIG. 23”, “nm)” for “nm). The irradiation”, “(VWR,” for “(VWR.”, “monitor.” for “monitor. Each irradiation event was 10 minutes long.”
POH-LA conjugate, linoleic acid, POH, and the additive combination of linoleic acid and POH were each suspended in glycerol:ethanol (90:10 vol/vol) to a final concentration of 10 nM with 50 μL applied to each mouse post UV-B exposure for treatment. […]

[5] = test system: U87 human glioma cells; test: MTT cytotoxicity assay, U87 cells; format: cell-based; settings: Homo sapiens, U-87 MG, U-87 cells, 48 hours
Excerpt: (§5) In vitro efficacy of the present composition can be determined using methods well known in the art. For example, the cytotoxicity of the present monoterpene (or sesquiterpene) and/or the therapeutic agents may be studied by MTT [3-(4,5-dimethylthiazol-2-yl)-2,5-diphenyl tetrazolium bromide] cytotoxicity assay. MTT assay is based on the principle of uptake of MTT, a tetrazolium salt, by metabolically active cells where it is metabolized into a blue colored formazan product, which can be read spectrometrically. J. of Immunological Methods 65: 55 63, 1983. The cytotoxicity of the present monoterpene (or sesquiterpene) derivative and/or the therapeutic agents may be studied by colony formation assay. Functional assays for inhibition of VEGF secretion and IL-8 secretion may be performed via ELISA. Cell cycle block by the present monoterpene (or sesquiterpene) derivative and/or the therapeutic agents may be studied by standard propidium iodide (PI) staining and flow cytometry. Invasion inhibition may be studied by Boyden chambers. In this assay a layer of reconstituted basement membrane, Matrigel, is coated onto chemotaxis filters and acts as a barrier to the migration of cells in the Boyden chambers. Only cells with invasive capacity can cross the Matrigel barrier. Other assays include, but are not limited to cell viability assays, apoptosis assays, and morphological assays. […]

[6] = test system: A172 human glioma cells; test: MTT cytotoxicity assay, A172 cells; format: cell-based; settings: Homo sapiens, A-172 cells, 48 hours
Excerpt: as §5

[7] = test system: U251 human glioma cells; test: MTT cytotoxicity assay, U251 cells
Excerpt: (§6) In vitro efficacy of the present composition can be determined using methods well known in the art. For example, the cytotoxicity of the present monoterpene (or sesquiterpene) and/or the therapeutic agents may be studied by MTT [3-(4,5-dimethylthiazol-2-yl)-2,5-diphenyl tetrazolium bromide] cytotoxicity assay. MTT assay is based on the principle of uptake of MTT, a tetrazolium salt, by metabolically active cells where it is metabolized into a blue colored formazan product, which can be read spectrometrically. J. of Immunological Methods 65: 55 63, 1983. The cytotoxicity of the present monoterpene (or sesquiterpene) derivative and/or the therapeutic agents may be studied by colony formation assay. Functional assays for inhibition of VEGF secretion and IL-8 secretion may be performed via ELISA. Cell cycle block by the present monoterpene (or sesquiterpene) derivative and/or the therapeutic agents may be studied by standard propidium iodide (PI) staining and flow cytometry. Invasion inhibition may be studied by Boyden chambers. In this assay a layer of reconstituted basement membrane, Matrigel, is coated onto chemotaxis filters and acts as a barrier to the migration of cells in the Boyden chambers. Only cells with invasive capacity can cross the Matrigel barrier. Other assays include, but are not limited to cell viability assays, apoptosis assays, and morphological assays.
(§7) To compare the cytotoxicity of Rolipram POH Carbamate (POH-Rolipram) (e.g., synthesized by the method in Example 5) with rolipram, […] inducing differentiation and apoptosis in glioma cells, A172, U87, U251 and LN229 human glioma cells were treated with either POH-Rolipram or rolipram for 48 hours.
MTT cytotoxicity assays were carried out after cells were treated with the TMZ-POH conjugate. The MTT cytotoxicity assays were carried out as described in Chen T C, et al. Green tea epigallocatechin gallate enhances therapeutic efficacy of temozolomide in orthotopic mouse glioblastoma models. Cancer Lett. 2011 Mar. 28; 302(2):100-8.

[8] = test system: LN229 human glioma cells; test: cells; settings: Homo sapiens, LN-229, 48 h
Excerpt: as §6, §7

[9] = test system: human malignant glioma cells U87, A172 and U251; test: MTT cytotoxicity assays on U87, A172 and U251 cells (stated jointly); format: cell-based
Protocol: J. of Immunological Methods 65: 55 63, 1983. […] Invasion inhibition may be studied by Boyden chambers.
Then U87, A172 and U251 cells were treated with dimethyl celecoxib bisPOH carbamate (POH-DMC) (e.g., synthesized by the method in Example 1), and the MTT cytotoxicity assays performed (FIG. 2).
Then TMZ-resistant glioma cell lines U87, A172 and U251 cells were treated with temozolomide POH carbamate (POH-TMZ) (e.g., synthesized by the method in Example 3).

[10] = test system: USC-04 glioma cancer stem cells; test: MTT cytotoxicity assay, USC-04 glioma cancer stem cells; format: cell-based; settings: USC-04; increasing concentrations (TMZ 0-400 uM; POH 0-2 mM)
Excerpt: (§8) Cancer Lett. 2011 Mar. 28; 302(2):100-8.

[11] = test system: USC-02 glioma cancer stem cells; test: MTT cytotoxicity assay, USC-02 glioma cancer stem cells; format: cell-based; settings: USC-02; increasing concentrations (TMZ 0-400 uM; POH 0-2 mM)
Excerpt: as §8

[12] = test system: TMZ sensitive (U251) cells; test: Colony forming assay, TMZ sensitive U251 cells; format: cell-based, human; settings: TMZ sensitive U251 cells
Protocol: (§9) Colony forming assays were carried out after cells were treated with TMZ alone, POH alone, and the TMZ-POH conjugate. […] Cancer Lett. 2011 Mar. 28; 302(2):100-8.

[13] = test system: TMZ resistant (U251TR) U251 cells; test: Colony forming assay, TMZ resistant U251TR cells; format: cell-based, human
Protocol: as §9

For CCCCC/C=C\C/C=C\CCCCCCCC(=O)O [linoleic acid], which TNF-α levels [1] is on record?
The TNF-α levels was 126.9 ± 14.6 pg/mL.

What about the IL-6 levels [2] of the same compound?
Its IL-6 levels is 18.3 ± 3.4 pg/mL.

And the “IL-1β serum levels increase” value [3]?
The value was 8.3 ± 2.1 pg/mL.

And the observable skin damage ([4]; 3 weeks of UV-B exposure and treatment)?
Its observable skin damage is “displayed damage”.

What about the observable skin damage ([4]; 5 weeks of UV-B exposure and treatment) of the same compound?
Its observable skin damage is “displayed damage”.

Which IC50 [5] does the source give for COc1ccc(C2CNC(=O)C2)cc1OC1CCCC1 (stereo not shown) [rolipram, reference compound] here?
Its IC50 is greater than 1000 µM.

And the IC50 [6]?
Its IC50 is roughly 1000 µM.

And the plateau cytotoxicity [7]?
The plateau cytotoxicity was 60%.

And the IC50 ([7]; Homo sapiens, U-251, 48 h)?
Its IC50 is 170 µM.

What about the IC50 [8] of the same compound?
The IC50 was greater than 100 µM.

Which “cytotoxicity / kill rates (MTT)” value [9] does the source give for C=C(C)C1CC=C(COC(=O)N(C(=O)OCC2=CCC(C(=C)C)CC2)S(=O)(=O)c2ccc(-n3nc(C(F)(F)F)cc3-c3cc(C)ccc3C)cc2)CC1 (stereo not shown) [POH-DMC] here?
The value was “much better cytotoxicity than DMC alone”.

What does the source list for Cn1nnc2c(C(N)=O)ncn2c1=O [TMZ, temozolomide]?
cytotoxicity / kill rates (MTT) [9]: minimal cytotoxicity; cytotoxicity (MTT) [10]: did not induce significant cytotoxicity; cytotoxicity (MTT) [11]: did not induce significant cytotoxicity; cytotoxicity (colony forming assay) [12]: demonstrated cytotoxicity; cytotoxicity (colony forming assay) [13]: minimal cytotoxicity
